Source: patent publication US20250177412A1, “SMALL-MOLECULE INHIBITORS TARGETING THE BOB1/OCT1 INTERFACE” (NANTES UNIVERSITE, priority 2022, published 2025)
Read-outs that look alike come from different tables or passages of the source.

What was measured:
HEK293 cells = assay: MTT assay; type: cell-based; details: data not shown
memory B cells = assay: Immunoglobulin isotype production (LEGENDplex 8-plex); type: cell-based, human; details: day 7
Protocol: B cells were stimulated to differentiate into plasmablasts using a two-phase cell culture protocol as previously described. Briefly, B cells were seeded at 4×10^5 cells/mL in 24-well plates and activated during 4 days with 50 ng/mL recombinant human soluble CD40L (R&D Systems), 2.5 μg/mL CpG oligodeoxynucleotide (ODN) 2006 (Amidogen or Cayla Invivogen), 2 μg/mL F(ab′)2 fragment goat anti-human IgA+IgG+IgM (H+L) polyclonal Abs (anti-BCR) (Jackson ImmunoResearch Laboratories), and 50 U/mL human IL-2 (SARL Pharmaxie or Novartis). […] At days 0, 4 and 7, B cells were stained with viability marker LIVE/DEAD Fixable Aqua Dead Cell Stain (Thermofisher) to identify dead cells, followed by extracellular staining with anti-human mAbs: anti-CD20 FITC, anti-IgD BUV395, anti-CD27 BUV737, anti-CD38 BV605 (all from BD Biosciences) and analyzed by flow cytometry (FACSCelesta™, BD Biosciences). In some experiments, B cell apoptosis was evaluated by intracellular active caspase-3 staining (Caspase-3-PE, BD Biosciences).
Immunoglobulin isotypes were quantified using the Human Immunoglobulin Isotyping LEGENDplex 8-plex kit (BioLegend) according to the manufacturer's instructions. Data were collected on the BD FACSCanto™ II flow cytometer and analyzed using LEGENDplex Data Analysis Software.

[1] = tested on: CD4+CD25- effector T cells; assay: T cell suppression assay (B cell / CD4+CD25- T cell co-culture); type: cell-based, human; details: for inhibition at 10 µM: Homo sapiens, T-cell, read-out: T-cell proliferation (percentage inhibition)
Protocol: B cells were kept unstimulated (B resting) or stimulated (B expanded) for 24 hours with the expansion mixture containing F(ab′)2 anti-BCR, CpG ODN, CD40L, IL-2, and IL-21. FIG. 6A-B show the expression level of granzyme B measured as frequency (FIG. 6A) and by the MFI (FIG. 6B) in DMSO-treated (compound 005-) and 10 μM compound 005-treated resting (open circles) and expanded for […] (closed circles) B cells. FIG. 6C-G show resting and expanded B cells washed with fresh medium and co-cultured with autologous CPD-labelled CD4^+CD25^− effector T cells for 3 days in the presence of anti-CD3/CD28 Dynabeads. compound 005 was added to the B cells only during 24-hours of activation with the expansion mixture (FIG. 6C-D), followed by daily supplementation during three days of co-culture (FIG. 6E-G). Representative offset histogram overlays showing median fluorescence intensity of staining of gated live […] with cell proliferation dye (CPD) (FIGS. 6C, 6E and 6F). The percentage of proliferating cells is indicated for one representative donor. FIGS. 6D and 6G show corresponding summarized data for the percentage inhibition of proliferation of anti-CD3/CD28-activated CD4^+CD25^− T cells co-cultured with resting (open circles) or expanded (closed circles) B cells without BOB1 inhibitor (DMSO-treated control) or in the presence of 10 μM compound 005. Bars indicate the mean±SD. ** P<0.01, *** P<0.001. FIG. 6H-J Expression values of POU2AF1 (FIG. 6H), POU2F1 (FIG. 6I), and POU2F2 (FIG. 6J) genes encoding BOB1, OCT1 and OCT2, respectively, extracted from scRNA-seq data on B cells stimulated toward regulatory (expanded) or unstimulated (rested). Data are represented with bar plots as mean+SD of non-zero values or with dot plots represented as a percentage of positive cells (FIG. 6H-J) or the average expression in each condition (FIG. 6K). P-values are adjusted to the number of expressed genes in the dataset.
Cells were resuspended in PBS and labelled with Cell Proliferation Dye eFluor 450 (CPD) (eBioscience) at a final concentration of 10 μM at 37° C. for 10 min, kept on ice for 5 min, and washed twice with 10 mL of ice-cold RPMI 1640 10% FCS medium.
Primary total human B cells (1×10^6 cells/mL) were prestimulated for ˜24 h with the cocktail containing 10 ng/mL of IL-21 (Miltenyi Biotec), 5 μg/mL of F(ab′)2 anti-BCR Abs (Jackson ImmunoResearch Laboratories Inc.), 50 ng/ml of CD40L (R&D systems), 1 μg/mL of CpG oligonucleotides (ODN 2006, Invivogen), and 50 U/mL of IL-2 (Novartis) as previously described, in the presence of vehicle (DMSO) or 10 μM compound 005. […] The capacity of B cells to suppress effector T cell proliferation was assessed as previously described. […] T cell proliferation was evaluated as the percentage of CPD-low T cells on day 3. […]

## Cc1ccc(NC(=O)C2CN(c3nc(NCCCc4ccc(F)cc4)nc(NCCC(=O)O)n3)c3ccccc3O2)cc1Cl (centres unmarked) [compound 005, 3-((4-(2-((3-chloro-4-methylphenyl)carbamoyl)-2,3-dihydro-4H-benzo[b][1,4]oxazin-4-yl)-6-((3-(4-fluorophenyl)propyl)amino)-1,3,5-triazin-2-yl)amino)propanoic acid]
HEK293 cells; concentrations up to 40 μM
  toxicity for HEK293 cells: non-toxic or mildly toxic
HEK293 cells
  concentration from which inhibitory effect is observed in MTT assay: ≥ 10 µM
Memory B cells; 10 μM
  IgG1, IgG2, IgG3 and IgG4 production: significant decrease
Memory B cells; 15 and 20 μM
  titers of all immunoglobulin subclasses: strongly suppressed
[1]; 10 μM during the 24-hours pre-stimulation phase only
  suppressive capacity of B expanded: did not affect
[1]; 10 μM, co-cultures of T cells and B expanded
  suppression of effector T-cell proliferation: 79.7±4.9
[1]; 72 h, 10 μM, T cells only, 3 days
  inhibition at 10 µM: 53.7 ± 5.8%
[1]; 10 μM, co-cultures of T cells and B resting
  inhibition at 10 µM: 52.1 ± 7.1%
